Assay results taken from PMC5768759 (2018).

Experiments:
[1] = tested on: F-duplex-T (DNA, hairpin, Spacer18 (hexaethylene glycol) between 10 and 11) TATAGCTATATATAGCTATA; assay: FRET melting; details: 5 mM K+, 50 mM Li+; 5 mM lithium cacodylate, pH 7.4; compound 0.2 μM, DNA 0.2 μM; no increment above error
[2] = tested on: ht21 (DNA, G4) GGGTTAGGGTTAGGGTTAGGG; assay: fluorescent intercalator displacement; details: 100 mM K+; 10 mM lithium cacodylate, pH 7.4; thiazole orange 0.5 μM displaced; DNA 0.25 μM; nearly 6-fold weaker than c-myc
[3] = tested on: ds26 (DNA, duplex) CAATCGGATCGAATTCGATCCGATTG; assay: fluorescent intercalator displacement; details: 100 mM K+; 10 mM lithium cacodylate, pH 7.4; thiazole orange 0.75 μM displaced; DNA 0.25 μM; nearly 10-fold weaker than c-myc
[4] = tested on: c-myc (DNA, G4) TGAGGGTGGGTAGGGTGGGTAA; assay: fluorescent intercalator displacement; details: 100 mM K+; 10 mM lithium cacodylate, pH 7.4; thiazole orange 0.5 μM displaced; DNA 0.25 μM

Row | SMILES | binding [1] | DC50 [2] [nM] | DC50 [3] [nM] | DC50 [4] [nM]
1 | NCCCCCCCCCN.[Cl-].[Cl-].[Pt+2].[Pt+2].c1ccc(-c2ccnc3c2ccc2c(-c4ccccc4)ccnc23)cc1.c1ccc(-c2ccnc3c2ccc2c(-c4ccccc4)ccnc23)cc1 | no | 1170 | 1840 | 200
2 | NCCCCCCCCN.[Cl-].[Cl-].[Pt+2].[Pt+2].c1ccc(-c2ccnc3c2ccc2c(-c4ccccc4)ccnc23)cc1.c1ccc(-c2ccnc3c2ccc2c(-c4ccccc4)ccnc23)cc1 | no |  |  | 
3 | NCCCCCCCN.[Cl-].[Cl-].[Pt+2].[Pt+2].c1ccc(-c2ccnc3c2ccc2c(-c4ccccc4)ccnc23)cc1.c1ccc(-c2ccnc3c2ccc2c(-c4ccccc4)ccnc23)cc1 | no |  |  | 
4 | NCCCCCCCCCCN.[Cl-].[Cl-].[Pt+2].[Pt+2].c1ccc(-c2ccnc3c2ccc2c(-c4ccccc4)ccnc23)cc1.c1ccc(-c2ccnc3c2ccc2c(-c4ccccc4)ccnc23)cc1 | no |  |  | 
